Values quoted from earlier work in patent publication US20060029543A1, “Treatment of B-cell lymphoma” (priority 2004, published 2006).

Conditions: received more than 200 milligrams per meter squared of doxorubicin

COc1cccc2c1C(=O)c1c(O)c3c(c(O)c1C2=O)C[C@@](O)(C(=O)CO)C[C@@H]3O[C@H]1C[C@H](N)[C@H](O)[C@H](C)O1 [doxorubicin]
Left ventricular dysfunction, long-term survivors affected: 8 of 57
